Measured values from US10314819B2, “Solid state forms of Eluxadoline” (TEVA PHARMACEUTICALS INTERNATIONAL GMBH, priority 2015, dated 2019).
Where two headings read alike, the source gives them in different places.

Tests used:
Type in all cases: physicochemical
[1] = Thermal stability, heating in a vacuum dryer at 50° C. and 100° C. (XRPD, HPLC); conditions: for XRPD / HPLC/Area % (start: 99.88): vacuum dryer
Experimental: Samples of Eluxadoline alpha (5 g) were subjected to heating in a vacuum dryer at 50° C. and 100° C., for different periods of time.

[2] = Specific surface area (SSA), BET nitrogen
Experimental: Specific Surface Area (SSA) measurements (Bet Nitrogen) were determined using a Micromeritics ASAP 2000, specific surface area analyzer. Samples were subjected to the BET nitrogen adsorption analysis to determine the specific surface of the samples.
Sample tube: 10 cc bulb with ½″ stem
Sample mass: Approximately ½ full cell
Sample preparation: Degassing with nitrogen
Outgassing conditions: 40° C. (30 min)
Isothermal collection point: 20 adsorption points, in the range 0-1 P/P0
Isothermal data analysis range: 5 point BET in the range 0.05-0.20 P/P0
Equilibration interval: 5 s
Equilibration time out: 600 s

[3] = Texture analysis / density at 0.2 MPa; conditions: 200 mg sample compressed in steel mould
Experimental: A simple and low sample consuming method for evaluation of the packing density of powders were obtained as compression profiles under low pressures using a die and a flat-faced punch fitted on a TA-XTplus Texture analyser (Stable Micro Systems Ltd., Godalming, UK). The small amount of 200 mg of sample is compressed in a steel mould (with the rate of displacement 0.03 mm/s). Also, a cyclic procedure (similar to tapping) was performed at maximal compressive displacement 0.5 mm, then retracting, relaxation for 15 s and then repeated compressive steps (altogether up to 20 steps).

[4] = % weight loss / water content (TGA, KF) after storage at various relative humidity; conditions: for % weight loss/water cont. - after 1 M, TGA: TGA up to 190° C.
Experimental: (§1) The obtained amorphous form was stored at various conditions, and the PXRD was analyzed after 3 and 7 days:
(§2) The obtained form alpha was stored at various conditions, and the PXRD was analyzed after 3 and 8 days:
(§3) The obtained amorphous form was stored at various conditions of relative humidity, and the PXRD was obtained after 1M (Table 4):
(§4) The obtained amorphous form was stored at various conditions, and the PXRD was obtained after 2M (Table 5):
(§5) XRPD pattern is shown in FIG. 16; SEM image is shown in FIG. 17; DSC thermogram is shown in FIG. 21 and TGA thermogram is shown in FIG. 22. The obtained form alpha was stored at various conditions, and the PXRD was obtained after 8, 14, and 21 days (Table 6): […]

[5] = Polymorph stability on storage at various relative humidity (PXRD)
Experimental: Sample after being powdered in a mortar and pestle is applied directly on a silicon plate holder. The X-ray powder diffraction pattern was measured with Philips X'Pert PRO X-ray powder diffractometer, equipped with Cu irradiation source=1.54184 Å(Ångström), X'Celerator (2.022° 2θ) detector. Scanning parameters: angle range: 3-40 deg., step size 0.0167, time per step 37 s, continuous scan.
as §1
The obtained pure amorphous form was stored at various conditions, and the PXRD was analyzed after 3 and 7 days:
as §2, §3, §4, §5

[6] = Dissolution in 50 mM phosphate buffer pH = 7.4 at 37° C.; conditions: 50 mM phosphate buffer pH = 7.4, 37° C.
Experimental: Samples were prepared and analysed in duplicate. About 20 mg of each sample were weighed into 500 ml Erlenmeyer flask, 200 ml of 50 mM phosphate buffer pH=7.4, previously heated to 37° C. were added and flasks were shaken at 110 rpm for 60 minutes at 37±0.2° C. in an incubator shaker. 3 ml aliquots were taken at 5, 10, 20, 30, 45 and 60 min, filtered through 0.45 μm Chromafil Xtra RC 45/25 syringe filter and analysed by UV/VIS spectrometer (absorbance at 203 nm).
The measurement was performed using the following instruments: • pH/Ion meter PHM 240, MeterLab, Radiometer Analytical • Incubator shaker Innova 4080, New Brunswick Scientific, 19 mm diameter circular orbit • UV/VIS spectrometer Varian Cary 50 Bio, 1 mm quartz cell Results of Eluxadoline samples dissolution in 50 mM phosphate buffer pH=7.4 are summarized in Table 8 below: […]

[7] = Flow function, FT4 Powder Rheometer, Freeman shear test 9 kPa; conditions: PSD/μm 10/60/164
Experimental: The Flow function was determined by using FT4 Powder Rheometer, Freeman FT4 instrument, and standard Freeman shear test—9 kPa (using small cell 1 ml), according to method below:
1. Compact to 9 kPa for 60 s
2. Pre shear hold 7 kPa for 16 s
3. Shear test at 7 kPa (Shear at 18°/min for 10°, auto detected peak torque yes)
4. Pre shear hold 6 kPa for 16 s
5. Shear test at 6 kPa (Shear at 18°/min for 10°, auto detected peak torque yes)
6. Pre shear hold 5 kPa for 16 s
7. Shear test at 5 kPa (Shear at 18°/min for 10°, auto detected peak torque yes)
8. Pre shear hold 4 kPa for 16 s
9. Shear test at 4 kPa (Shear at 18°/min for 10°, auto detected peak torque yes)
10. Pre shear hold 3 kPa for 16 s
11. Shear test at 3 kPa (Shear at 18°/min for 10°, auto detected peak torque yes)

COc1ccc(CN(C(=O)[C@@H](N)Cc2c(C)cc(C(N)=O)cc2C)[C@@H](C)c2nc(-c3ccccc3)c[nH]2)cc1C(=O)O [Eluxadoline alpha form, Eluxadoline]
XRPD ([1]; 50 ° C., 1 h): alpha
XRPD ([1]; 50 ° C., 2 h): alpha
XRPD ([1]; 50 ° C., 3 h): alpha
HPLC/Area % (start: 99.88) ([1]; 50 ° C., 3 h): 99.91 Area %
XRPD ([1]; 100 ° C., 1 h): alpha
XRPD ([1]; 100 ° C., 2 h): alpha
XRPD ([1]; 100 ° C., 3 h): alpha
HPLC/Area % (start: 99.88) ([1]; 100 ° C., 3 h): 99.91 Area %
stability by XRPD and HPLC on heating ([1]; vacuum dryer at 50° C. and 100° C., different periods of time): stable
SSA ([2]; listed as Eluxadoline form alpha): about 9.63 m^2/g

COc1ccc(CN(C(=O)[C@@H](N)Cc2c(C)cc(C(N)=O)cc2C)[C@@H](C)c2nc(-c3ccccc3)c[nH]2)cc1C(=O)O [Eluxadoline alpha-lower particle size, Eluxadoline]
Density at 0.2 MPa [3]: 0.5190 mg/mm^3

COc1ccc(CN(C(=O)[C@@H](N)Cc2c(C)cc(C(N)=O)cc2C)[C@@H](C)c2nc(-c3ccccc3)c[nH]2)cc1C(=O)O [Example 10, Eluxadoline]
% weight loss/water cont. - after 7 days, TGA ([4]; 0% RH, 7 days): TGA-7.96%
% weight loss/water cont. - after 7 days, KF ([4]; 20% RH, 7 days): 9.01%
% weight loss/water cont. - after 7 days, TGA ([4]; 20% RH, 7 days): 7.96%
% weight loss/water cont. - after 7 days, KF ([4]; 40% RH, 7 days): 9.11%
% weight loss/water cont. - after 7 days, TGA ([4]; 40% RH, 7 days): 8.15%
% weight loss/water cont. - after 7 days, KF ([4]; 60% RH, 7 days): 9.91%
% weight loss/water cont. - after 7 days, TGA ([4]; 60% RH, 7 days): 8.88%
% weight loss/water cont. - after 7 days, KF ([4]; 80% RH, 7 days): 13.30%
% weight loss/water cont. - after 7 days, TGA ([4]; 80% RH, 7 days): 11.88%
% weight loss/water cont. - after 7 days, KF ([4]; 100% RH, 7 days): 15.69%
% weight loss/water cont. - after 7 days, TGA ([4]; 100% RH, 7 days): 15.03%
% weight loss/water cont. - after 7 days, TGA ([4]; As is): TGA-5.97%
PXRD results - after 7 days ([5]; 0% RH, 7 days): amorphous
PXRD results - after 7 days ([5]; 20% RH, 7 days): amorphous
PXRD results - after 7 days ([5]; 40% RH, 7 days): amorphous
PXRD results - after 7 days ([5]; 60% RH, 7 days): amorphous
PXRD results - after 7 days ([5]; 80% RH, 7 days): amorphous
PXRD results - after 7 days ([5]; 100% RH, 7 days): amorphous
PXRD results - after 7 days ([5]; As is): amorphous

COc1ccc(CN(C(=O)[C@@H](N)Cc2c(C)cc(C(N)=O)cc2C)[C@@H](C)c2nc(-c3ccccc3)c[nH]2)cc1C(=O)O [Example 11, Eluxadoline]
PXRD results after 7 days ([5]; 0% RH, 7 days): amorphous
PXRD results after 7 days ([5]; 20% RH, 7 days): amorphous
PXRD results after 7 days ([5]; 40% RH, 7 days): amorphous
PXRD results after 7 days ([5]; 60% RH, 7 days): amorphous
PXRD results after 7 days ([5]; 80% RH, 7 days): amorphous
PXRD results after 7 days ([5]; 100% RH, 7 days): amorphous

COc1ccc(CN(C(=O)[C@@H](N)Cc2c(C)cc(C(N)=O)cc2C)[C@@H](C)c2nc(-c3ccccc3)c[nH]2)cc1C(=O)O [Example 12, 5-(((S)-2-amino-3-(4-carbamoyl-2,6-dimethylphenyl)-N—((S)-1-(4-phenyl-1H-imidazol-2-yl)ethyl)propanamido)methyl)-2-methoxybenzoic acid]
% weight loss after 8 days by TGA ([4]; as is, TGA up to 121° C.): TGA* = 1.29%
PXRD results after 8 days ([5]; 0% RH): alpha
PXRD results after 8 days ([5]; 20% RH): alpha
PXRD results after 8 days ([5]; 40% RH): alpha
PXRD results after 8 days ([5]; 60% RH): alpha
PXRD results after 8 days ([5]; 80% RH): alpha

COc1ccc(CN(C(=O)[C@@H](N)Cc2c(C)cc(C(N)=O)cc2C)[C@@H](C)c2nc(-c3ccccc3)c[nH]2)cc1C(=O)O [Example 20]
% dissolved ([6]; 5 min): 63.21%
% dissolved ([6]; 10 min): 81.56%
% dissolved ([6]; 20 min): 91.46%
% dissolved ([6]; 30 min): 93.81%
% dissolved ([6]; 45 min): 94.48%
% dissolved ([6]; 60 min): 94.50%
% weight loss/water cont. - after 1 M, TGA ([4]; 0% RH, 1 M): TGA-7.42%
% weight loss/water cont. - after 1 M, TGA ([4]; 20% RH, 1 M): TGA-8.42%
% weight loss/water cont. - after 1 M, TGA ([4]; 40% RH, 1 M): TGA-9.34%
% weight loss/water cont. - after 1 M, TGA ([4]; 60% RH, 1 M): TGA-10.36%
% weight loss/water cont. - after 1 M, TGA ([4]; 80% RH, 1 M): TGA-12.89%
% weight loss/water cont. - after 1 M, TGA ([4]; 100% RH, 1 M): TGA-15.23%
% weight loss/water cont. - after 1 M, TGA ([4]; As is): TGA-5.79%
PXRD results - after 1 M ([5]; 0% RH, 1 M): amorphous
PXRD results - after 1 M ([5]; 20% RH, 1 M): amorphous
PXRD results - after 1 M ([5]; 40% RH, 1 M): amorphous
PXRD results - after 1 M ([5]; 60% RH, 1 M): amorphous
PXRD results - after 1 M ([5]; 80% RH, 1 M): amorphous
PXRD results - after 1 M ([5]; 100% RH, 1 M): amorphous
PXRD results - after 1 M ([5]; As is): amorphous

COc1ccc(CN(C(=O)[C@@H](N)Cc2c(C)cc(C(N)=O)cc2C)[C@@H](C)c2nc(-c3ccccc3)c[nH]2)cc1C(=O)O [Example 21]
Classification of powder flowability after Jenike [7]: Free-flowing (10 < FF)
Flow Function, (FF) ([7]; shear test 9 kPa): 10.08
SSA [2]: 1.243 m^2/g
% weight loss/water cont. after 2 M KF ([4]; 0% RH, 2 M): 8.56%
% weight loss/water cont. after 2 M KF ([4]; 20% RH, 2 M): 9.17%
% weight loss/water cont. after 2 M KF ([4]; 40% RH, 2 M): 10.50%
% weight loss/water cont. after 2 M KF ([4]; 60% RH, 2 M): 11.93%
% weight loss/water cont. after 2 M KF ([4]; 80% RH, 2 M): 14.15%
% weight loss/water cont. after 2 M KF ([4]; 100% RH, 2 M): 14.54%
% weight loss/water cont. after 2 M KF ([4]; As is): 4.42%
PXRD results - after 2 M ([5]; 0% RH, 2 M): amorphous
PXRD results - after 2 M ([5]; 20% RH, 2 M): amorphous
PXRD results - after 2 M ([5]; 40% RH, 2 M): amorphous
PXRD results - after 2 M ([5]; 60% RH, 2 M): amorphous
PXRD results - after 2 M ([5]; 80% RH, 2 M): amorphous
PXRD results - after 2 M ([5]; 100% RH, 2 M): amorphous
PXRD results - after 2 M ([5]; As is): amorphous

COc1ccc(CN(C(=O)[C@@H](N)Cc2c(C)cc(C(N)=O)cc2C)[C@@H](C)c2nc(-c3ccccc3)c[nH]2)cc1C(=O)O [amorphous Eluxadoline, Eluxadoline]
changes of samples exposed to RH (stability of amorphous form) ([5]; RH 0-10% for a 7 day period): did not show any changes
